Assay results taken from US9464064B2, “HCV helicase inhibitors and methods of use thereof” (University of Kansas, priority 2011, dated 2016).

Target: T1, HCV NS3 helicase NS3h_1b(con1) (Hepatitis C virus genotype 1b, UniProt Q9WMX2)
T1 construct: truncated C-terminally His-tagged NS3 proteins lacking the N-terminal protease, called NS3h; His-tag (C); made in house
Experiment: MBHA screen of NCI mechanistic set library at 20 μM (percent inhibition, compound interference)
Type: biochemical
Settings: compounds at 20 μM; for Inh. (%) (Inhibition): calculated from Equation 1
Procedure, shortened: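 Molecular beacon-based DNA unwinding assay; compounds screened at 20 μM in triplicate, with DMSO-only negative and 500 nM dT20 positive controls. Fluorescence (ex 643/em 670 nm) was read before and 30 min after adding ATP to 1 mM. Percent inhibition came from the change relative to DMSO controls; interference from pre-ATP fluorescence versus DMSO controls.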

[1] = MBHA with DNA substrate, assay interference calculated with Equation 2
[2] = assay interference calculated with Equation 2 (fluorescence vs DMSO-only controls before ATP)

T1 sequence (Q9WMX2 1192-1657): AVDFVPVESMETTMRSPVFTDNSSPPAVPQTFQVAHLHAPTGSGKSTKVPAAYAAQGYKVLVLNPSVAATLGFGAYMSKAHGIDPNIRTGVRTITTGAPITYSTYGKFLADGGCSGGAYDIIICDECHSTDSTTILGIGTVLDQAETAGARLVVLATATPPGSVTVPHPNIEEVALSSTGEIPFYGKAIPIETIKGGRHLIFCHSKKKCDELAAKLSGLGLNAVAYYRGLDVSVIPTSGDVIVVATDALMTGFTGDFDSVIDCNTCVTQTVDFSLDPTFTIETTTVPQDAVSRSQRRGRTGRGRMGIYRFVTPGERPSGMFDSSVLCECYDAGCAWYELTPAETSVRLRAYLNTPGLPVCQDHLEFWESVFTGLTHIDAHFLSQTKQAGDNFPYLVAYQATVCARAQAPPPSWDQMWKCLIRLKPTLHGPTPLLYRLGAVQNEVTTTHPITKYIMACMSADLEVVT

Row | Compound | Int.* (Ratio) (Interference) [1] | Inh. (%) (Inhibition) (MBHA with DNA substrate) | Inh. (%) (Inhibition) (MBHA with a DNA substrate) | Int.* (Ratio) (Interference) [2] | Inh. (%) (Inhibition) (MBHA with DNA substrate, 20 µM)
1 | Cl.Nc1nccc2c1ncn2C1C=C(CO)C(O)C1O (stereo not drawn) [Compound 617989] | 0.96 | −12.9 | – | – | –
2 | COc1ccc2c(c1)C=C([N+](=O)[O-])C(C1OC(C)(C)OC1C1COC(C)(C)O1)O2 (stereo not drawn) [Compound 618261] | – | – | −6.4 | 0.95 | –
3 | O=C1C(Br)=C(Br)C(=O)c2ccccc21 [Compound 618332] | 1.03 | −18.7 | – | – | –
4 | C/C=C(\CCC1NCCc2c1[nH]c1ccccc21)[Si](C)(C)C (stereo not drawn) [Compound 619165] | 0.89 | 13.6 | – | – | –
5 | [Cl-].[Cl-].[Cl-].[Rh+3].c1ccc(-c2ccnc3c2ccc2c(-c4ccccc4)ccnc23)cc1.c1ccc(-c2ccnc3c2ccc2c(-c4ccccc4)ccnc23)cc1.c1ccc(-c2ccnc3c2ccc2c(-c4ccccc4)ccnc23)cc1 [Compound 619179] | 0.44 | 23.8 | – | – | –
6 | O=C([O-])c1cc(I)cc(I)c1O.O=C([O-])c1cc(I)cc(I)c1O.[Mn+2] [Compound 619907] | – | – | −27.2 | 0.86 | –
7 | COC(=O)C[S+]([O-])c1ccccc1 (stereo not drawn) [Compound 620050] | – | – | −3.3 | 0.96 | –
8 | N#CCCN(CCC#N)c1ccc(C=Nc2ccc(F)cc2)cc1 [Compound 620277] | 0.93 | 17.1 | – | – | –
9 | CCOC(=O)c1ccc(N=Cc2ccc(N(CCC#N)CCC#N)cc2)cc1 [Compound 620279] | – | – | −45.1 | 1.17 | –
10 | Cc1c(N=Cc2ccc(N(CCC#N)CCC#N)cc2)c(=O)n(-c2ccccc2)n1C [Compound 620280] | – | – | −30.3 | 1.01 | –
11 | C=C1C(=O)C23CC[C@@H]4C(C)(C(=O)OC)CCCC4(C)[C@@H]2CCC1(O)C3 (stereo partly drawn) [Compound 620358] | 0.91 | −10.5 | – | – | –
12 | CC1=NN(C(=O)c2ccncc2)C(=O)C1N=Nc1ccc(F)cc1 (stereo not drawn) [Compound 621094] | 0.98 | −2.8 | – | – | –
13 | Cc1cc2c(cc1C)[n+](=O)c(C(=O)/C=C/c1ccccc1[N+](=O)[O-])c(C)n2[O-] [Compound 621486] | 1.16 | −10.4 | – | – | –
14 | C[N+](C)(C)CC1CCCC1=O.[I-] (stereo not drawn) [Compound 621889] | 1.08 | 12.2 | – | – | –
15 | [Mo] [Compound 622116] | 0.97 | – | – | – | 3.5
16 | [Mo] [Compound 622124] | 1.11 | – | – | – | 54.2
17 | COC1=CC(=O)c2c(ccc3ncnc(N)c23)C1=O [Compound 622190] | 1.09 | 4.9 | – | – | –
18 | COc1ccc(-n2/c(=N/C(=S)N(C)C)ss/c2=N\C(=S)N(C)C)cc1 [Compound 622586] | 0.93 | −14.9 | – | – | –
19 | CN(C)C(=S)/N=c1\ss/c(=N\C(=S)N(C)C)n1-c1ccc2c(c1)OCO2 [Compound 622589] | – | – | −21.0 | 0.94 | –
20 | Br.CN(C)c1nc(=NCc2ccco2)ss1 [Compound 622608] | 1.01 | −2.1 | – | – | –
21 | CCOC(=O)CCc1c(C)c2c(O)cc(O)cc2oc1=O [Compound 622616] | – | – | −6.5 | 0.95 | –
22 | O=[N+]([O-])c1cc(C(F)(F)F)cc([N+](=O)[O-])c1CCl [Compound 622627] | – | – | −26.2 | 1.09 | –
23 | NC(=O)c1c([N+](=O)[O-])cc(C(F)(F)F)cc1[N+](=O)[O-] [Compound 622640] | 1.10 | −13.4 | – | – | –
24 | CCOC(=O)/N=C(\N)SCc1ccccc1.Cl [Compound 622684] | 1.04 | −1.3 | – | – | –

Row | Compound | Int.* (Ratio) (Interference) [1] | Inh. (%) (Inhibition) (MBHA with DNA substrate) | Inh. (%) (Inhibition) (MBHA with a DNA substrate) | Int.* (Ratio) (Interference) [2] | Inh. (%) (Inhibition) (MBHA with DNA substrate, 20 µM)
25 | Cn1ncc2cc3c(Nc4ccc(Cl)cc4)cccc3nc21 [Compound 622732] | 0.92 | 27.4 | – | – | –
26 | Cc1cc(Cl)ccc1N1C(=O)C(=O)C(c2nc3ccccc3o2)C(=O)C1=O [Compound 623051] | 0.92 | −10.9 | – | – | –
27 | COc1ccc2nc(NC(=O)C(=O)CC(=O)c3ccc(Cl)cc3)sc2c1 [Compound 623059] | 0.94 | −8.7 | – | – | –
28 | O=C(Nc1ccccc1-c1nn(C(=S)Nc2ccccc2)c(=S)n(C(=S)Nc2ccccc2)c1=O)C(F)(F)F [Compound 623093] | – | – | −4.2 | 0.87 | –
29 | CN(C)c1ccc(/C=c2/sc3nc(=O)c(-c4ccccc4NC(=O)C(F)(F)F)nn3c2=O)cc1 [Compound 623095] | 0.81 | −15.3 | – | – | –
30 | CC(=O)OCc1c2ccccc2c(C)c2c1cc(F)c1ccccc12 [Compound 623135] | 0.87 | 36.6 | – | – | –
31 | CCCCCCCCCCCCCCCCCCOCC(COCCOCC[N+]1(CCCCCC(=O)[O-])CCCC1)Oc1ncccn1 (stereo not drawn) [Compound 623527] | – | – | −21.1 | 0.98 | –
32 | COC(=O)c1ccccc1OCc1cc(=O)oc2ccc(C)cc12 [Compound 623637] | – | – | −3.5 | 0.97 | –
33 | CCOC(=O)C1=C(O)CSC1=Nc1ccc(N=C2SCC(O)=C2C(=O)OCC)cc1 [Compound 623746] | – | – | −29.6 | 0.99 | –
34 | Cc1ccc(S(=O)(=O)SC/C=C/CSS(=O)(=O)c2ccc(C)cc2)cc1 [Compound 624158] | – | – | 9.2 | 0.90 | –
35 | O=S(=O)(O)SC/C=C/CSS(=O)(=O)O [Compound 624161] | 1.03 | −8.2 | – | – | –
36 | Cl.NCCSSCc1ccccc1CSSCCN [Compound 624169] | – | – | 7.7 | 0.96 | –
37 | CCCCCCCCCCNCCSSCc1ccc(Cl)cc1.Cl [Compound 624206] | 0.81 | 0.1 | – | – | –
38 | CC12CC(Br)(Br)C(=O)C3C1CCCC32 [Compound 624358] | – | – | −4.4 | 1.05 | –
39 | Cc1[nH]c(=O)nc(N/N=C/c2ccc(Cl)cc2)c1C(=O)Nc1ccc(Cl)cc1 [Compound 624947] | 0.86 | −14.2 | – | – | –
40 | C=CCOC1OC(CO[Si](C)(C)C(C)(C)C)C(OCc2ccccc2)C(OCc2ccccc2)C1OCc1ccccc1 (stereo not drawn) [Compound 624953] | 0.90 | −7.5 | – | – | –
41 | O=c1ncccn1C1OC(CO)C(O)C1F (stereo not drawn) [Compound 625355] | 1.05 | −10.4 | – | – | –
42 | Fc1cccc(Cl)c1C1SCc2nc3ccccc3n21 (stereo not drawn) [Compound 625483] | – | – | 12.0 | 0.93 | –
43 | Fc1cccc(F)c1C1SCc2nc3ccccc3n21 (stereo not drawn) [Compound 625487] | 1.01 | −0.1 | – | – | –
44 | COc1ccc2cccc(C(=N)c3ccc(C)c4c3CCC4)c2c1 [Compound 625590] | 0.95 | 14.3 | – | – | –
45 | Cc1ccccc1NC(=O)/C=N/O [Compound 625639] | 1.09 | −17.7 | – | – | –
46 | Cc1cc([N+](=O)[O-])ccc1Nc1cccc(Cl)c1C [Compound 625641] | – | – | −37.8 | 1.20 | –
47 | C1CN(c2nnc(N3CCC3)nn2)C1 [Compound 625748] | 0.94 | −11.6 | – | – | –
48 | COc1ccccc1Cc1nc(-c2ccccc2)nn(C2OC(COC(C)=O)C(OC(C)=O)C(OC(C)=O)C2OC(C)=O)c1=S (stereo not drawn) [Compound 625873] | 1.02 | −16.6 | – | – | –
